From the NIST ThermoML archive (doi:10.1021/je100687x)

Test: xn = mol fraction of the nth substance listed
Conditions: 101 kPa, Liquid; for electrical conductivity: Crison GLP 31+ conductivimeter

CCCCn1cc[n+](C)c1.F[B-](F)(F)F [1-butyl-3-methylimidazolium tetrafluoroborate] + CCO
Conditions	electrical conductivity [S/m]	viscosity [mPa·s]
288.15 K, x2 = 0	–	173.5
288.15 K, x2 = 0.0765	–	121.4
288.15 K, x2 = 0.199	–	69.06
288.15 K, x2 = 0.2894	–	45.23
288.15 K, x2 = 0.3918	–	28.39
288.15 K, x2 = 0.4976	–	18.13
288.15 K, x2 = 0.6001	–	12.35
288.15 K, x2 = 0.717	–	7.86
288.15 K, x2 = 0.7998	–	5.676
288.15 K, x2 = 0.9014	–	3.06
298.15 K, x2 = 0	0.352	99.2
298.15 K, x2 = 0.0368	0.393	–
298.15 K, x2 = 0.0765	–	72.49
298.15 K, x2 = 0.1136	0.522	–
298.15 K, x2 = 0.1492	0.594	–
298.15 K, x2 = 0.199	–	44.05
298.15 K, x2 = 0.2894	–	30.15
298.15 K, x2 = 0.2992	0.939	–
298.15 K, x2 = 0.3918	–	19.7
298.15 K, x2 = 0.4162	1.268	–
298.15 K, x2 = 0.4976	–	12.97
298.15 K, x2 = 0.5137	1.551	–
298.15 K, x2 = 0.5866	1.729	–
298.15 K, x2 = 0.6001	–	9.038
298.15 K, x2 = 0.6426	1.826	–
298.15 K, x2 = 0.6863	1.871	–
298.15 K, x2 = 0.717	–	5.25
298.15 K, x2 = 0.7204	1.874	–
298.15 K, x2 = 0.7498	1.859	–
298.15 K, x2 = 0.7947	1.745	–
298.15 K, x2 = 0.7998	–	4.286
298.15 K, x2 = 0.8394	1.564	–
298.15 K, x2 = 0.8763	1.343	–
298.15 K, x2 = 0.8835	1.297	–
298.15 K, x2 = 0.8908	1.249	–
298.15 K, x2 = 0.9014	–	2.371
298.15 K, x2 = 0.9034	1.155	–
298.15 K, x2 = 0.9134	1.077	–
298.15 K, x2 = 0.9217	1.01	–
298.15 K, x2 = 0.9287	0.94	–
298.15 K, x2 = 0.9347	0.874	–
298.15 K, x2 = 0.9399	0.825	–
298.15 K, x2 = 0.9493	0.733	–
298.15 K, x2 = 0.9564	0.658	–
298.15 K, x2 = 0.9617	0.597	–
298.15 K, x2 = 0.9668	0.536	–
298.15 K, x2 = 0.9755	0.423	–
298.15 K, x2 = 0.9897	0.221	–
298.15 K, x2 = 0.9916	0.194	–
298.15 K, x2 = 0.9934	0.162	–
298.15 K, x2 = 0.9972	0.0851	–
308.15 K, x2 = 0	–	61.3
308.15 K, x2 = 0.0765	–	46.39
308.15 K, x2 = 0.199	–	29.81
308.15 K, x2 = 0.2894	–	21.18
308.15 K, x2 = 0.3918	–	14.45
308.15 K, x2 = 0.4976	–	9.836
308.15 K, x2 = 0.6001	–	7.026
308.15 K, x2 = 0.717	–	4.056
308.15 K, x2 = 0.7998	–	3.363
308.15 K, x2 = 0.9014	–	1.947
318.15 K, x2 = 0	–	40.4
318.15 K, x2 = 0.0765	–	31.43
318.15 K, x2 = 0.199	–	21.16
318.15 K, x2 = 0.2894	–	15.5
318.15 K, x2 = 0.3918	–	11.01
318.15 K, x2 = 0.4976	–	7.691
318.15 K, x2 = 0.6001	–	5.567
318.15 K, x2 = 0.717	–	3.252
318.15 K, x2 = 0.7998	–	2.723
318.15 K, x2 = 0.9014	–	1.641

CCCCCCn1cc[n+](C)c1.F[B-](F)(F)F [1-hexyl-3-methylimidazolium tetrafluoroborate] + CCO
Conditions	electrical conductivity [S/m]	viscosity [mPa·s]
288.15 K, x2 = 0	–	357.5
288.15 K, x2 = 0.1	–	207.2
288.15 K, x2 = 0.197	–	118.9
288.15 K, x2 = 0.298	–	69.02
288.15 K, x2 = 0.3877	–	48.92
288.15 K, x2 = 0.4921	–	27.71
288.15 K, x2 = 0.6009	–	16.92
288.15 K, x2 = 0.7	–	9.866
288.15 K, x2 = 0.8002	–	5.545
288.15 K, x2 = 0.902	–	2.893
298.15 K, x2 = 0	0.126	190.9
298.15 K, x2 = 0.1	–	119.2
298.15 K, x2 = 0.197	–	72.6
298.15 K, x2 = 0.2439	0.33	–
298.15 K, x2 = 0.298	–	43.77
298.15 K, x2 = 0.3877	–	32.06
298.15 K, x2 = 0.3981	0.565	–
298.15 K, x2 = 0.4566	0.66	–
298.15 K, x2 = 0.4921	–	18.86
298.15 K, x2 = 0.507	0.769	–
298.15 K, x2 = 0.5491	0.877	–
298.15 K, x2 = 0.5861	0.947	–
298.15 K, x2 = 0.6009	–	12.09
298.15 K, x2 = 0.6189	1.034	–
298.15 K, x2 = 0.645	1.083	–
298.15 K, x2 = 0.6708	1.129	–
298.15 K, x2 = 0.6938	1.17	–
298.15 K, x2 = 0.7	–	7.513
298.15 K, x2 = 0.7145	1.206	–
298.15 K, x2 = 0.733	1.216	–
298.15 K, x2 = 0.7495	1.222	–
298.15 K, x2 = 0.7648	1.244	–
298.15 K, x2 = 0.7909	1.25	–
298.15 K, x2 = 0.8002	–	4.191
298.15 K, x2 = 0.8217	1.225	–
298.15 K, x2 = 0.8454	1.19	–
298.15 K, x2 = 0.8637	1.144	–
298.15 K, x2 = 0.8755	1.109	–
298.15 K, x2 = 0.8857	1.07	–
298.15 K, x2 = 0.8946	1.033	–
298.15 K, x2 = 0.902	–	2.284
298.15 K, x2 = 0.9042	0.98	–
298.15 K, x2 = 0.9133	0.929	–
298.15 K, x2 = 0.9214	0.879	–
298.15 K, x2 = 0.9267	0.832	–
298.15 K, x2 = 0.9347	0.778	–
298.15 K, x2 = 0.9437	0.702	–
298.15 K, x2 = 0.9526	0.621	–
298.15 K, x2 = 0.9593	0.57	–
298.15 K, x2 = 0.9686	0.473	–
298.15 K, x2 = 0.9758	0.393	–
298.15 K, x2 = 0.9803	0.331	–
298.15 K, x2 = 0.9858	0.262	–
298.15 K, x2 = 0.9892	0.214	–
298.15 K, x2 = 0.9934	0.147	–
298.15 K, x2 = 0.996	0.102	–
298.15 K, x2 = 0.9979	0.0636	–
308.15 K, x2 = 0	–	110.3
308.15 K, x2 = 0.1	–	74.2
308.15 K, x2 = 0.197	–	46.59
308.15 K, x2 = 0.298	–	29.55
308.15 K, x2 = 0.3877	–	22.1
308.15 K, x2 = 0.4921	–	13.73
308.15 K, x2 = 0.6009	–	9.004
308.15 K, x2 = 0.7	–	5.487
308.15 K, x2 = 0.8002	–	3.278
308.15 K, x2 = 0.902	–	1.867
318.15 K, x2 = 0	–	68.5
318.15 K, x2 = 0.1	–	48.17
318.15 K, x2 = 0.197	–	32.05
318.15 K, x2 = 0.298	–	21.19
318.15 K, x2 = 0.3877	–	16.11
318.15 K, x2 = 0.4921	–	10.3
318.15 K, x2 = 0.6009	–	6.945
318.15 K, x2 = 0.7	–	4.498
318.15 K, x2 = 0.8002	–	2.636
318.15 K, x2 = 0.902	–	1.506

CCCCCCCC[n+]1ccn(C)c1.F[B-](F)(F)F [1-methyl-3-octylimidazolium tetrafluoroborate] + CCO
Conditions	electrical conductivity [S/m]	viscosity [mPa·s]
288.15 K, x2 = 0	–	686
288.15 K, x2 = 0.0891	–	428.3
288.15 K, x2 = 0.1902	–	244.7
288.15 K, x2 = 0.2927	–	141
288.15 K, x2 = 0.3914	–	73.44
288.15 K, x2 = 0.4911	–	45.24
288.15 K, x2 = 0.5938	–	26.02
288.15 K, x2 = 0.6979	–	14.53
288.15 K, x2 = 0.798	–	7.219
288.15 K, x2 = 0.9002	–	3.499
298.15 K, x2 = 0	0.069	337.4
298.15 K, x2 = 0.0891	–	224.8
298.15 K, x2 = 0.1236	0.108	–
298.15 K, x2 = 0.183	0.143	–
298.15 K, x2 = 0.1902	–	140.9
298.15 K, x2 = 0.2395	0.191	–
298.15 K, x2 = 0.2898	0.239	–
298.15 K, x2 = 0.2927	–	83.3
298.15 K, x2 = 0.3359	0.291	–
298.15 K, x2 = 0.3914	–	46.35
298.15 K, x2 = 0.4147	0.396	–
298.15 K, x2 = 0.4783	0.5	–
298.15 K, x2 = 0.4911	–	29.85
298.15 K, x2 = 0.5316	0.59	–
298.15 K, x2 = 0.5759	0.672	–
298.15 K, x2 = 0.5938	–	17.84
298.15 K, x2 = 0.6135	0.737	–
298.15 K, x2 = 0.6455	0.786	–
298.15 K, x2 = 0.6799	0.834	–
298.15 K, x2 = 0.6979	–	10.39
298.15 K, x2 = 0.7089	0.872	–
298.15 K, x2 = 0.7381	0.911	–
298.15 K, x2 = 0.7667	0.918	–
298.15 K, x2 = 0.7922	0.926	–
298.15 K, x2 = 0.798	–	5.362
298.15 K, x2 = 0.8138	0.92	–
298.15 K, x2 = 0.832	0.903	–
298.15 K, x2 = 0.8472	0.882	–
298.15 K, x2 = 0.8663	0.844	–
298.15 K, x2 = 0.8814	0.8	–
298.15 K, x2 = 0.8938	0.762	–
298.15 K, x2 = 0.9002	–	2.764
298.15 K, x2 = 0.9087	0.696	–
298.15 K, x2 = 0.9197	0.639	–
298.15 K, x2 = 0.9307	0.583	–
298.15 K, x2 = 0.9409	0.526	–
298.15 K, x2 = 0.9502	0.454	–
298.15 K, x2 = 0.9586	0.393	–
298.15 K, x2 = 0.9692	0.304	–
298.15 K, x2 = 0.9771	0.239	–
298.15 K, x2 = 0.9851	0.155	–
298.15 K, x2 = 0.9915	0.0924	–
308.15 K, x2 = 0	–	187.7
308.15 K, x2 = 0.0891	–	132.1
308.15 K, x2 = 0.1902	–	85.86
308.15 K, x2 = 0.2927	–	53.62
308.15 K, x2 = 0.3914	–	31.24
308.15 K, x2 = 0.4911	–	20.79
308.15 K, x2 = 0.5938	–	12.87
308.15 K, x2 = 0.6979	–	7.756
308.15 K, x2 = 0.798	–	4.135
308.15 K, x2 = 0.9002	–	2.206
318.15 K, x2 = 0	–	112.1
318.15 K, x2 = 0.0891	–	81.45
318.15 K, x2 = 0.1902	–	56.18
318.15 K, x2 = 0.2927	–	36.49
318.15 K, x2 = 0.3914	–	22.1
318.15 K, x2 = 0.4911	–	15.44
318.15 K, x2 = 0.5938	–	9.671
318.15 K, x2 = 0.6979	–	6.015
318.15 K, x2 = 0.798	–	3.283
318.15 K, x2 = 0.9002	–	1.802
